Tests used:
Colo205 = assay: Cellular proliferation assay (Alamar blue), Colo205; type: cell-based; conditions: 72 hours with compound, 10% FCS; for IC50: Homo sapiens, COLO 205, Colo205 cells, read-out: pIC50 Colo205 (converted); for pIC50 Colo205: Colo205 cells
Protocol: (§1) […] functional properties of these compounds was tested in cellular proliferation assays on a panel of different cell lines in the presence of 10% FCS serum (37° C. and 5% (v/v) CO2). In a first step these cells were seeded and incubated for 24 hours in the absence of compound. In the second step the cells were incubated for 72 hours with the compounds to be tested for 72 hours. The viable cell number was finally assessed in a standard Alamar blue cell viability assay.
(§2) The viable cell number was assessed by incubation for either 4 h (HCT-116, H1299, H460) 6 h (SKOV3, HT29, U87-MG, Colo205) or 24 h (A2780, PC3, MDA-MB-231, A549, MCF-7) with Alamar blue (Resazurin 9 μg/ml, K-Ferrocyanide 90 μM K-Ferricyanide 90 μM) and the converted fluorescent product was quantified on a fluorescent plate readed (544 nm/590 nm). Effect of the compounds is calculated as of on control cells.

SK-N-SH = assay: Cellular proliferation assay (Alamar blue), SK-N-SH; type: cell-based; conditions: SK-N-SH cells, 72 hours with compound, 10% FCS; for IC50: Homo sapiens, read-out: pIC50 SK-N-SH (converted)
Protocol: as §1, §2

MDA/MB231 = assay: Cellular proliferation assay (Alamar blue), MDA/MB231; type: cell-based; conditions: Homo sapiens, MDA-MB-231, 72 h, MDA/MB231 cells, 72 hours with compound, 10% FCS, read-out: pIC50 MDA/MB231 (converted)
Summary of the method: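 Cells were grown in 10% FCS at 37° C. with 5% CO2, plated 24 h without compound, then exposed to compound for 72 h. Viability was measured by Alamar blue (resazurin 9 μg/ml) fluorescence at 544 nm/590 nm after 4 h (H460) or 24 h (MDA-MB-231) dye incubation, relative to control cells.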

SKOV3 = assay: Cellular proliferation assay (Alamar blue), SKOV3; type: cell-based; conditions: 72 hours with compound, 10% FCS; for IC50: Homo sapiens, SK-OV-3, SKOV3 cells, read-out: pIC50 SKOV3 (converted); for pIC50 SKOV3: SKOV3 cells
Protocol: as §1, §2

AuroraB (h) = AuroraB (h) (Homo sapiens, UniProt Q96GD4); assay: Aurora-B human kinase assay (SPA); type: biochemical; conditions: for IC50: read-out: AuroraB pIC50 (converted)
AuroraB (h), sequence (Q96GD4 whole entry): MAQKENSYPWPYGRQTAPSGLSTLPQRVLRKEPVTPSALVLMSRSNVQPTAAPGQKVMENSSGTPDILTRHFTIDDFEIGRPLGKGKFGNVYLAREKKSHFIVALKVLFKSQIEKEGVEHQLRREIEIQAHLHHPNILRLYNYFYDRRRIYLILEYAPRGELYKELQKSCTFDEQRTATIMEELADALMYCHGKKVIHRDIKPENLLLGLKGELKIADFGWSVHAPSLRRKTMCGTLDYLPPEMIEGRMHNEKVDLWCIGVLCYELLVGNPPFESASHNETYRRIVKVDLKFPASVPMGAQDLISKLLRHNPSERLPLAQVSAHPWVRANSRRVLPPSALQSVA
Summary of the method: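 33P-phosphorylated biotin-substrate captured on streptavidin PVT SPA beads after EDTA-containing stop and imaged on Leadseeker. Reaction: 60 min at room temperature, Hepes pH 7.5 with Mg2+/Mn2+. Conditions: 0.5 μM ATP plus 2.2 nM [γ-33P]ATP, 3 μM substrate, 0.5 μg/ml human AuroraB.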

H460 = assay: Cellular proliferation assay (Alamar blue), H460; type: cell-based; conditions: 72 hours with compound, 10% FCS; for IC50: Homo sapiens, NCI-H460, H460 cells, read-out: pIC50 H460 (converted); for pIC50 H460: H460 cells
Protocol: as §1, §2

PLK4 (h) = PLK4 (h) (Homo sapiens, UniProt O00444); assay: PLK-4 human kinase assay (SPA); type: biochemical; conditions: for IC50: read-out: PLK4 pIC50 (converted)
PLK4 (h), sequence (O00444 whole entry): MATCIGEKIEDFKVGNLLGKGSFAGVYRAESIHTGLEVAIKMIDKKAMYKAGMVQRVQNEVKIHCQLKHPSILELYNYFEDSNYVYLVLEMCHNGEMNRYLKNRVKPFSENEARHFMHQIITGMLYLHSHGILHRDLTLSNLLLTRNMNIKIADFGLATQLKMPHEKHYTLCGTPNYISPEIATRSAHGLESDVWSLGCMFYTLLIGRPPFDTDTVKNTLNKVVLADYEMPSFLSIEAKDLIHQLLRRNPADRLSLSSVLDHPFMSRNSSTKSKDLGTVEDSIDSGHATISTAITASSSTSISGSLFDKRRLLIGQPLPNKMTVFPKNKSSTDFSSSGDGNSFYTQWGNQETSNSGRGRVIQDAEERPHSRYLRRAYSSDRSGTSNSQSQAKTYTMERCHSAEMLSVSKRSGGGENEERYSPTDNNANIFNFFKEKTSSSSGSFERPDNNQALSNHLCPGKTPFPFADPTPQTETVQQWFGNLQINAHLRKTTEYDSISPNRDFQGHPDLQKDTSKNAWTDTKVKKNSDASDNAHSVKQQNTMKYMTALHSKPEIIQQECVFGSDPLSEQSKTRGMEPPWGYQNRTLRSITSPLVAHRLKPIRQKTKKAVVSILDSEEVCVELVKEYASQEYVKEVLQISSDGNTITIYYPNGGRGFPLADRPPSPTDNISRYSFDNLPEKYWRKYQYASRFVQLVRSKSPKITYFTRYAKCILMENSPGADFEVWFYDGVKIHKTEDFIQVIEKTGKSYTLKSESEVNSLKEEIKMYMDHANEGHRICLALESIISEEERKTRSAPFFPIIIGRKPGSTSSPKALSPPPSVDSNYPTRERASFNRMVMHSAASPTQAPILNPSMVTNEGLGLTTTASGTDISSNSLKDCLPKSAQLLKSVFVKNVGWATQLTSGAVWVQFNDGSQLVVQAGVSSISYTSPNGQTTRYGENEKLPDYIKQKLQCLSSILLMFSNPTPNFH
Summary of the method: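 Radiometric readout: 33P-labelled peptide captured on streptavidin SPA beads after EDTA stop, imaged by Leadseeker. Reaction ran 60 min at room temperature in Hepes pH 8.0 buffer. It contained 1 μM ATP with 2 nM [γ-33P]ATP, 10 μM biotinylated peptide and PLK4 (h) at 19 μg/ml.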

PC-3 = assay: Cellular proliferation assay (Alamar blue), PC-3; type: cell-based; conditions: PC-3 cells, 72 hours with compound, 10% FCS; for IC50: Homo sapiens, PC-3, 72 h, read-out: pIC50 PC-3 (converted)
Summary of the method: (§3)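 Proliferation was assessed over 72 h of compound treatment, following 24 h of seeding without compound, under 10% FCS, 37° C. and 5% CO2. Fluorescent resazurin product was measured and compared with control cells.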

H1299 = assay: Cellular proliferation assay (Alamar blue), H1299; type: cell-based; conditions: Homo sapiens, NCI-H1299, 72 h, H1299 cells, 72 hours with compound, 10% FCS, read-out: pIC50 H1299 (converted)
Summary of the method: as §3

HT-29 = assay: Cellular proliferation assay (Alamar blue), HT-29; type: cell-based; conditions: HT-29 cells, 72 hours with compound, 10% FCS; for IC50: Homo sapiens, read-out: pIC50 HT-29 (converted)
Protocol: as §1, §2

MCF-7 = assay: Cellular proliferation assay (Alamar blue), MCF-7; type: cell-based; conditions: 72 hours with compound, 10% FCS; for IC50: Homo sapiens, MCF7, MCF-7 cells, read-out: pIC50 MCF-7 (converted); for pIC50 MCF-7: MCF-7 cells
Protocol: as §1, §2

A549 = assay: Cellular proliferation assay (Alamar blue), A549; type: cell-based; conditions: A549 cells, 72 hours with compound, 10% FCS; for IC50: Homo sapiens, read-out: pIC50 A549 (converted)
Protocol: as §1, §2

A431 = assay: Cellular proliferation assay (Alamar blue), A431; type: cell-based; conditions: 72 hours with compound, 10% FCS; for IC50: Homo sapiens, A-431, A431 cells, read-out: pIC50 A431 (converted); for pIC50 A431: A431 cells
Protocol: as §1, §2

DU-145 = assay: Cellular proliferation assay (Alamar blue), DU-145; type: cell-based; conditions: DU-145 cells, 72 hours with compound, 10% FCS; for IC50: Homo sapiens, read-out: pIC50 DU-145 (converted)
Protocol: as §1, §2

HCT-116 = assay: Cellular proliferation assay (Alamar blue), HCT-116; type: cell-based; conditions: Homo sapiens, HCT-116, 72 h, HCT-116 cells, 72 hours with compound, 10% FCS, read-out: pIC50 HCT-116 (converted)
Summary of the method: as §3

A2780 = assay: Cellular proliferation assay (Alamar blue), A2780; type: cell-based; conditions: Homo sapiens, A2780, 72 h, A2780 cells, 72 hours with compound, 10% FCS, read-out: pIC50 A2780 (converted)
Summary of the method: as §3

U87MG = assay: Cellular proliferation assay (Alamar blue), U87MG; type: cell-based; conditions: Homo sapiens, U-87 MG, 72 h, U87MG cells, 72 hours with compound, 10% FCS, read-out: pIC50 U87MG (converted)
Summary of the method: as §3

CDK1/CyclinB (h) = CDK1/CyclinB (h) (Homo sapiens, UniProt P06493); assay: CDK1/CyclinB human kinase assay (FRET); type: biochemical
CDK1/CyclinB (h), sequence (P06493 whole entry): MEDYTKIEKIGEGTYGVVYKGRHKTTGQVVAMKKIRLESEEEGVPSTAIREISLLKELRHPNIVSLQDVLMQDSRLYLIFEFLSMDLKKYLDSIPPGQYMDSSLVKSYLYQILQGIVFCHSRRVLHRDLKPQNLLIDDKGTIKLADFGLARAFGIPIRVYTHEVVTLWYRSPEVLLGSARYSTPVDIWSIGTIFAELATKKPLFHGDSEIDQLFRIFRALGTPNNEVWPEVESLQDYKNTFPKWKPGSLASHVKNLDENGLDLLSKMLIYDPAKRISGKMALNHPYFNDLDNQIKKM
CDK1/CyclinB (h), sequence (P14635 whole entry partner): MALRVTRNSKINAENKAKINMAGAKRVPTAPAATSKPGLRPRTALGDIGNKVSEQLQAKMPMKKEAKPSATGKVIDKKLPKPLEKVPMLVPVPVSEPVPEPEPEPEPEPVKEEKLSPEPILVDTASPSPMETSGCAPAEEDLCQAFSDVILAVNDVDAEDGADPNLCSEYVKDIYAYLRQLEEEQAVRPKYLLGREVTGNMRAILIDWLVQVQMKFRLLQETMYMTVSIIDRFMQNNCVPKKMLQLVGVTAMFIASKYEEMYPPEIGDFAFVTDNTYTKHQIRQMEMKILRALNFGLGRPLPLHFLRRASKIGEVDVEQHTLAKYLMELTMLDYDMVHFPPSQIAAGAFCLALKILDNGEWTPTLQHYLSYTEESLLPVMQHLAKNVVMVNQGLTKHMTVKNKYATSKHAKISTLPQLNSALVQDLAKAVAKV
Summary of the method: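 Kinase activity was read as the 460/538 nm emission ratio after protease cleavage of unphosphorylated peptide (60 min development). The reaction ran 60 min at room temperature with 10 μM ATP, 2 μM Ser/Thr peptide 12 and 0.2 μg/ml enzyme in Hepes pH 7.5 buffer with MgCl2, EGTA, Brij-35.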

GSK3β (h) = GSK3β (h) (Homo sapiens, UniProt P49841); assay: GSK-3β human kinase assay (SPA); type: biochemical
GSK3β (h), sequence (P49841 whole entry): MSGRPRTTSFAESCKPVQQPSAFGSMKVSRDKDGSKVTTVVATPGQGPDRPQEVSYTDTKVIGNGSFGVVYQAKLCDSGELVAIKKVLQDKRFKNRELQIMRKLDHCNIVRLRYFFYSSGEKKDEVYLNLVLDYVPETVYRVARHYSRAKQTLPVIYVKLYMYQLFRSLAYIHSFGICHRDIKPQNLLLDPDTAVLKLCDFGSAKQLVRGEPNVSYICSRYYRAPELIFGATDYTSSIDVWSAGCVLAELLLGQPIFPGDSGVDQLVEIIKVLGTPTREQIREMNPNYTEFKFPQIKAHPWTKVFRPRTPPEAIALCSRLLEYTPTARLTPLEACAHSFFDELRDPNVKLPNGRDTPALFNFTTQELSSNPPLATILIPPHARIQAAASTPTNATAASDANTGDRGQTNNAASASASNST
Summary of the method: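 Radiometric SPA read-out: after EDTA stop, biotinylated 33P-labelled peptide bound streptavidin PVT beads and was imaged on Leadseeker. Reaction: 60 min, room temperature, GSK3β (h) at 1 μg/ml, 1 μM substrate peptide, 1 μM ATP with 2 nM [γ-33P]ATP, Tris pH 7.4/MgCl2/DTT buffer.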

SMILES | IC50 (Colo205) | IC50 (SK-N-SH) | IC50 (MDA/MB231) | IC50 (SKOV3) | IC50 (AuroraB (h)) | IC50 (H460) | IC50 (PLK4 (h)) | IC50 (PC-3) | IC50 (HT-29) | IC50 (MCF-7) | IC50 (A549) | IC50 (A431) | IC50 (DU-145) | IC50 (HCT-116) | IC50 (A2780) | IC50 (U87MG) | also measured
O=C1Nc2ncnc3c2/C1=C/Nc1ccc(c(F)c1)OCCCCCC(=O)N1CCN3CC1 [Compound 22] | > 10 µM | > 10 µM | > 10 µM | > 10 µM | > 10 µM | > 10 µM | > 10 µM | > 10 µM | > 10 µM | > 10 µM | > 10 µM | > 10 µM | > 10 µM | > 10 µM | – | – | IC50 (H1299): > 10 µM
O=C1Nc2ncnc3c2/C1=C/Nc1ccc(c(Cl)c1)OCCCCCCC(=O)N1CCN3CC1 [Compound 20] | 7.76 µM | 6.61 µM | > 10 µM | > 10 µM | > 10 µM | > 10 µM | – | > 10 µM | > 10 µM | > 10 µM | > 10 µM | > 10 µM | > 10 µM | > 10 µM | – | – | IC50 (H1299): > 10 µM
COc1ccc2cc1OCCCC(=O)N(C)CCN(C)C1CCN(CC1)c1ncnc3c1/C(=C/N2)C(=O)N3 [Compound 34] | > 10 µM | 5.25 µM | – | > 10 µM | – | – | > 10 µM | – | ~8.32 µM | > 10 µM | > 10 µM | – | > 10 µM | – | – | – | –
COc1ccc2cc1OCCCC(=O)N1CCN(CC1)c1ncnc3c1/C(=C/N2)C(=O)N3 [Compound 17] | > 10 µM | 3.31 µM | > 10 µM | 4.68 µM | > 10 µM | > 10 µM | 1.62 µM | 10.7 µM | > 10 µM | 8.13 µM | 3.47 µM | > 10 µM | > 10 µM | > 10 µM | > 10 µM | 7.76 µM | –
O=C1Nc2ncnc3c2C1=CNc1cc(ccc1Cl)OCCCCC(=O)N1CCN3CC1 (mixture of isomers) [Compound 13] | > 10 µM | > 10 µM | > 10 µM | > 10 µM | > 10 µM | > 10 µM | > 10 µM | > 10 µM | > 10 µM | > 10 µM | > 10 µM | > 10 µM | > 10 µM | > 10 µM | > 10 µM | > 10 µM | –
CC(C)N1CCCC(=O)N2CCN(CC2)c2ncnc3c2C(=CNc2ccc(F)c(c2)C1)C(=O)N3 (mixture of isomers) [Compound 30] | – | – | – | – | – | – | – | – | – | – | – | – | – | – | – | – | pIC50 Colo205 (Colo205): <5; pIC50 SK-N-SH (SK-N-SH): <5; pIC50 SKOV3 (SKOV3): <5; pIC50 H460 (H460): <5; PLK4 pIC50 (PLK4 (h)): <5; pIC50 PC-3 (PC-3): <5; pIC50 HT-29 (HT-29): <5; pIC50 MCF-7 (MCF-7): <5; pIC50 A549 (A549): <5; pIC50 A431 (A431): <5; pIC50 DU-145 (DU-145): <5
O=C1Nc2ncnc3c2C1=CNc1ccc(cc1)S(=O)(=O)NCCCCC(=O)N1CCN3CC1 (mixture of isomers) [Compound 15] | > 10 µM | > 10 µM | > 10 µM | > 10 µM | > 10 µM | > 10 µM | 5.5 µM | > 10 µM | > 10 µM | > 10 µM | > 10 µM | > 10 µM | > 10 µM | > 10 µM | > 10 µM | > 10 µM | –
COc1ccc2cc1OCCCC(=O)N(C(C)C)CCN(C)c1ncnc3c1/C(=C/N2)C(=O)N3 [Compound 32] | 2.04 µM | 1.62 µM | – | 3.31 µM | – | 2.34 µM | 1.05 µM | 1 µM | 2.51 µM | 1.58 µM | 2.14 µM | 1.32 µM | 3.98 µM | – | – | – | –
COc1ccc2cc1OCCCC(=O)N(C(C)C)CCCCN(C)c1ncnc3c1C(=CN2)C(=O)N3 (mixture of isomers) [Compound 33] | – | – | – | – | – | – | – | – | – | – | – | – | – | – | – | – | CDK1 pIC50 (CDK1/CyclinB (h)): 5.14; pIC50 Colo205 (Colo205): <5; pIC50 SK-N-SH (SK-N-SH): 5.27; pIC50 SKOV3 (SKOV3): <5; AuroraB pIC50 (AuroraB (h)): 5; pIC50 H460 (H460): <5; PLK4 pIC50 (PLK4 (h)): 5.27; GSK3B pIC50 (GSK3β (h)): 5.33; pIC50 PC-3 (PC-3): <5; pIC50 HT-29 (HT-29): <5; pIC50 MCF-7 (MCF-7): 4.99; pIC50 A549 (A549): <5; pIC50 A431 (A431): <5; pIC50 DU-145 (DU-145): <5
CN1CCCCCC(=O)N2CCN(CC2)c2ncnc3c2/C(=C/Nc2cccc(c2)C1)C(=O)N3 [Compound 24] | > 10 µM | > 10 µM | > 10 µM | > 10 µM | > 10 µM | > 10 µM | 1.51 µM | > 10 µM | > 10 µM | > 10 µM | > 10 µM | > 10 µM | > 10 µM | > 10 µM | > 10 µM | > 10 µM | –
CC(C)N1CCCCCC(=O)N2CCN(CC2)c2ncnc3c2/C(=C/Nc2ccc(F)c(c2)C1)C(=O)N3 [Compound 28] | > 10 µM | > 10 µM | – | > 10 µM | > 10 µM | > 10 µM | > 10 µM | > 10 µM | > 10 µM | > 10 µM | > 10 µM | > 10 µM | > 10 µM | – | – | – | IC50 (CDK1/CyclinB (h); read-out: CDK1 pIC50 (converted)): > 10 µM; IC50 (GSK3β (h); read-out: GSK3B pIC50 (converted)): > 10 µM
